Values quoted from earlier work as cited in patent publication US12171237B2, “Insect repelling compositions and methods of manufacture thereof” (priority 2019, dated 2024).
“Also recorded” adds a separate entry of the source. Where two headings read alike, the source gives them in different places.

What was measured:
female Ae. aegypti = settings: Human-bait assay
[1] = test system: female Cx. pipiens pallens
[2] = test system: Cx. pipiens pallens, Cx. pipiens quinquefasciatus
female Ae. albopictus = settings: spatial repellent, 0.25 μg·cm^−2, after 48 h exposure
Ae. aegypti = settings: 1 h, 1.92 μg·cm^−2
Ae. albopictus = settings: 1 h, 1.92 μg·cm^−2
Mosquito = settings: d-α-pinene

C=CC(C)(O)CCC=C(C)C (racemic) [Linalool]
repellency (female Ae. aegypti; 1.4 mg·cm^−2): ^a1.4 mg (±)-linalool · cm^−2 = 67% repellency

CC(C)=CCCC(C)CCO (centres unmarked) [Citronellol]
Repellency (in words) (female An. gambiae): repellent component; also recorded: feeding deterrent/repellent, spatial repellent/inhibitor

C=CCc1ccc(O)c(OC)c1 [Eugenol]
Repellency (in words) [1]: high repellency

CC(C)=CCC/C(C)=C/C=O [Geranial]
blood-sucking by mosquitoes reduced by ([2]; at 0.2 mg·cm^−2, after 1 h): 10% | blood-sucking by mosquitoes reduced by ([2]; at 0.2 mg·cm^−2, after 2 h): 15% | blood-sucking by mosquitoes reduced by ([2]; at 0.2 mg·cm^−2, after 3 h): 18%

CC(C)=CCC/C(C)=C/CO [Geraniol]
(reversible) inhibition of host-seeking (female Ae. albopictus): spatial repellent: 0.25 μg · cm^−2 ca. 100% (reversible)

CCCCCCCC/C=C\CCCCCCCC(=O)O [Oleic acid]
repellency (female Ae. aegypti; 0.4 mg·cm^−2, after 1 h): 0.4 mg · cm^−2 = 52% repellency after 1 h^a

CC1=CCC(O)(C(C)C)CC1 (centres unmarked) [Terpinen-4-ol]
repellency (female Ae. aegypti; 1.4 mg·cm^−2): ^a1.4 mg · cm^−2 = 83% repellency | repellency (†) (Ae. aegypti): 92% | repellency (‡) (Ae. albopictus): 85%

CC1=CCC2CC1C2(C)C (stereo not drawn) [α-Pinene]
protection (Mosquito): d-α-pinene , 2 h protection

CC1=CC=C(C(C)C)CC1 [α-Terpinene]
repellency (female Ae. aegypti; 1.4 mg·cm^−2): ^a1.4 mg · cm^−2 = 15% repellency | repellency (†) (Ae. aegypti): 68% | repellency (‡) (Ae. albopictus): 55%

CC1=CCC(C(C)C)=CC1 [γ-Terpinene]
repellency (†) (Ae. aegypti): 60% | repellency (‡) (Ae. albopictus): 72%
